Consider 15 compounds from patent publication US11311542B2, “Inhibitors of cyclin dependent kinase 7 (CDK7)” (Syros Pharmaceuticals, Inc., priority 2018, dated 2022).

In one assay the test system is COV318 cells. The assay can be described thus: Inhibition of cell proliferation (CyQUANT Direct), COV318. It counts as cell-based, human. The settings on record: Homo sapiens, COV318, 72-hour. On the procedure: (§1) HCC70 and MB453 cells are cell lines derived from human triple negative breast cancer COV318 and COV504 cells are cell lines derived from human ovarian cancer. Representative compounds of the invention were tested at different concentrations (from 4 μM to 126.4 pM; 0.5 log serial dilutions) for their ability to inhibit the proliferation of each of these cell lines. Known CDK inhibitors dinaciclib or N-((1S,3R)-3-((5-chloro-4-(1H-indol-3-yl) pyrimidin-2-yl)amino)cyclohexyl)-5-((E)-4-(dimethylamino)but-2-enamido)picolinamide and triptolide were used as positive controls. Cells were seeded at approximately 2,000 cells/well and grown in ATCC-formulated RPMI-1640 Medium (ATCC 30-2001)+10% FBS. The cells were cultured at 37° C. in a humidified chamber in the presence of 5% CO2. Proliferation assays were conducted over a 72-hour time period. CyQUANT® Direct Cell Proliferation Assay (Life Technologies, Chicago, Ill. USA) was used to assess the anti-proliferative effects of the compounds following manufacturer's directions and utilizing the reagents supplied with the CyQUANT® Direct Cell kit.

A further assay deals with CDK2/Cyclin E1 complex (Homo sapiens, UniProt P24941). The assay can be described thus: CDK2 kinase inhibition assay (Caliper/LabChip EZ Reader).
The next assay addresses CDK9/Cyclin T1 complex (Homo sapiens, UniProt P50750). In words: CDK9 kinase inhibition assay (Caliper/LabChip EZ Reader).
A further assay has as its system COV504 cells. In words: Inhibition of cell proliferation (CyQUANT Direct), COV504. Format: cell-based, human. The settings on record: Homo sapiens, COV504, 72-hour. On the procedure:
as §1

Another assay has as its system MB453 cells. In words: Inhibition of cell proliferation (CyQUANT Direct), MB453. It counts as cell-based, human. The settings on record: Homo sapiens, MB453, 72-hour. On the procedure: as §1
In assay [1] the target is CDK7/Cyclin H/MAT1 complex (Homo sapiens, UniProt P50613). In words: CDK7 kinase inhibition assay (Caliper/LabChip EZ Reader).
Procedure: Compounds described herein were assayed for inhibition of CDK7, CDK9, CDK12, and CDK2 activity at Biortus Biosciences (Jiangyin, Jiangsu Province, P.R. of China) using kinase assays for each CDK developed with a Caliper/LabChip EZ Reader (Perkin Elmer, Waltham, Mass.).
Furthermore, the CDK9 inhibition assay used CDK9/Cyclin T1 complex (8 nM) and “5-FAM-CDK9tide” peptide substrate (2 μM, synthesized fluorophore-labeled peptide with the following sequence: 5-FAM-GSRTPMY-NH2 (SEQ ID NO:2) where 5-FAM is defined above and NH2 signifies a C-terminal amide) with 10 mM MgCl2 in the buffer composition listed above. The CDK12 inhibition assay used CDK12 (aa686-1082)/Cyclin K complex (50 nM) and “5-FAM-CDK9tide” (2 μM) as defined above, with 2 mM MgCl2 in the buffer composition above. Additionally, the CDK2 inhibition assay used CDK2/Cyclin E1 complex (0.5 nM) and “5-FAM-CDK7tide” (2 μM; defined above) with 2 mM MgCl2 in the buffer composition above.
The incubation period at 27° C. for each CDK inhibition assay was chosen such that the fraction of phosphorylated peptide product produced in each assay, relative to the total peptide concentration, was approximately 20% (±5%) for the uninhibited kinase (35 min. for CDK7, 35 min. for CDK2, 3 hr. for CDK12, 15 min. for CDK9).
For a further assay, the system named is HCC70 cells. In words: Inhibition of cell proliferation (CyQUANT Direct), HCC70. Format: cell-based, human. To be noted: Homo sapiens, HCC70, 72-hour. On the procedure: as §1
In assay [2] the target is CDK12 (aa686-1082)/Cyclin K complex (Homo sapiens, UniProt Q9NYV4). The assay can be described thus: CDK12 kinase inhibition assay (Caliper/LabChip EZ Reader).

Molecules are shown by their SMILES.

Sequence of CDK9/Cyclin T1 complex (P50750 whole entry): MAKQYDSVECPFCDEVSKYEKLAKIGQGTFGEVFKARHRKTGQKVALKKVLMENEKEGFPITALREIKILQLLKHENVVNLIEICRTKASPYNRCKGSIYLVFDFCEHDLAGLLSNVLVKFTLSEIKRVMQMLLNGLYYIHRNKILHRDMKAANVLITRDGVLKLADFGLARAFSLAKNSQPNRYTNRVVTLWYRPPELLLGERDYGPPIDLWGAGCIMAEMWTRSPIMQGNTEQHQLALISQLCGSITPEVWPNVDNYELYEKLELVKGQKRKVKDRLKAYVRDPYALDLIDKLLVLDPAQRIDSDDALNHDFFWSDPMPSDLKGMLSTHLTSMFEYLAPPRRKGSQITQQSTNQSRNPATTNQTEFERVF
Sequence of CDK9/Cyclin T1 complex (O60563 whole entry partner): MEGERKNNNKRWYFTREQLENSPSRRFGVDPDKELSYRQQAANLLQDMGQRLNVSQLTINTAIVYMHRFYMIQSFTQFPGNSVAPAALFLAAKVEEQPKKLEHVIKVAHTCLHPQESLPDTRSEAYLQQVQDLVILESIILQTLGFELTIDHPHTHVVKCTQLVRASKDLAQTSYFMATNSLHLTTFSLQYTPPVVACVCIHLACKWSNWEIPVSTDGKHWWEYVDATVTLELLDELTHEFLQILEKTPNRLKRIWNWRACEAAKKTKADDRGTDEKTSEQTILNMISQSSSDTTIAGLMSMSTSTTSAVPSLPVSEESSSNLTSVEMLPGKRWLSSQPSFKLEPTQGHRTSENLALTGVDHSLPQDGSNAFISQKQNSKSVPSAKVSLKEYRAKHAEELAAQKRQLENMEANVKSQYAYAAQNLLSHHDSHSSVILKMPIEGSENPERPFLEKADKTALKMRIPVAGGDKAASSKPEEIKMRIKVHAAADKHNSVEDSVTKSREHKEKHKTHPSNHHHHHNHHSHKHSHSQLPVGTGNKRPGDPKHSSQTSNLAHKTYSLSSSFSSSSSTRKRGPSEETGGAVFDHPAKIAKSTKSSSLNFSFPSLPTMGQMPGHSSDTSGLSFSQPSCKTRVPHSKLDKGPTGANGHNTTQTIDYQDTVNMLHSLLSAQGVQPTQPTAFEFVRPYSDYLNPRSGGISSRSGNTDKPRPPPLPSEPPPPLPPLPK
Sequence of CDK12 (aa686-1082)/Cyclin K complex (Q9NYV4 686-1082): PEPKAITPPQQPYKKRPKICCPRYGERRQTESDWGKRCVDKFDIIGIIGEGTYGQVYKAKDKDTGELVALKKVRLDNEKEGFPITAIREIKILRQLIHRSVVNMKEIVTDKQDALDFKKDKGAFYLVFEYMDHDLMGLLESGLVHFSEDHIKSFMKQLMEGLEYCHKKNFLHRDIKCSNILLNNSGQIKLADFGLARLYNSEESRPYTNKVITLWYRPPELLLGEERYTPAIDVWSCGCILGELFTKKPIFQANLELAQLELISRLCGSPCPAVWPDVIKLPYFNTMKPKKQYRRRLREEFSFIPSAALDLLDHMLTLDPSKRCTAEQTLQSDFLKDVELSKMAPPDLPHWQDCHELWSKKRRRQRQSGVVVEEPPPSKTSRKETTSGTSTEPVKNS
Sequence of CDK12 (aa686-1082)/Cyclin K complex (O75909 whole entry partner, the tested form may be a part): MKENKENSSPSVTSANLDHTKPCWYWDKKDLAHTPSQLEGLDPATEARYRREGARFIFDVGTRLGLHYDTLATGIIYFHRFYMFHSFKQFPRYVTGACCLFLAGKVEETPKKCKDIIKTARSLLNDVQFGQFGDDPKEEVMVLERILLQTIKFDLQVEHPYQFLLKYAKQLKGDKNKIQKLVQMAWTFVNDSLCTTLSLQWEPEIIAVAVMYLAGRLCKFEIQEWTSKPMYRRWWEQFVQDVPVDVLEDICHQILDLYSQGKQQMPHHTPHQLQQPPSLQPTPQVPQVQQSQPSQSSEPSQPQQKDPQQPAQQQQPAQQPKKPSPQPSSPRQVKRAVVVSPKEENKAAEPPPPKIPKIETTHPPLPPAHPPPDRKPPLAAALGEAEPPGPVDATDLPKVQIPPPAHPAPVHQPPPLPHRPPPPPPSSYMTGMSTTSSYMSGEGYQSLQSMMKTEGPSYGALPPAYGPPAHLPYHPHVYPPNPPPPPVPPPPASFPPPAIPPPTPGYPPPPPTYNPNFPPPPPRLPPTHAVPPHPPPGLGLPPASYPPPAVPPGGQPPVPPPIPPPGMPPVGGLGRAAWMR
Sequence of CDK7/Cyclin H/MAT1 complex (P50613 whole entry): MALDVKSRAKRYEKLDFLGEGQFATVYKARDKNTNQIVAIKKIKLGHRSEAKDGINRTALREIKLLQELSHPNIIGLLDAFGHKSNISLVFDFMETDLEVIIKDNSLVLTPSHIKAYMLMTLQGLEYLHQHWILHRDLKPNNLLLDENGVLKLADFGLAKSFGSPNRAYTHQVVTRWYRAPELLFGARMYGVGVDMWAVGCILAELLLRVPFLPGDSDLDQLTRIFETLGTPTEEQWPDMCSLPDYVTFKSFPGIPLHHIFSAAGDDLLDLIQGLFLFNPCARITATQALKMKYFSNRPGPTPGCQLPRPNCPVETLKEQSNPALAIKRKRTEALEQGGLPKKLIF
Sequence of CDK7/Cyclin H/MAT1 complex (P51946 whole entry partner): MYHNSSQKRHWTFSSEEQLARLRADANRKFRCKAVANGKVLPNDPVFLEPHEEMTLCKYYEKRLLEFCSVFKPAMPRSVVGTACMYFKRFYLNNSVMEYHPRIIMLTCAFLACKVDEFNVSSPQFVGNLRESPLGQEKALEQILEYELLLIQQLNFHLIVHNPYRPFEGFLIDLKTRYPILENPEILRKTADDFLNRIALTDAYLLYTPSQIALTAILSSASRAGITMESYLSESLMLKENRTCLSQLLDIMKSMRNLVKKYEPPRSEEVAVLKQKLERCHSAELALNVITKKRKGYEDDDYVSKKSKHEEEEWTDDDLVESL
Sequence of CDK7/Cyclin H/MAT1 complex (P51948 whole entry partner): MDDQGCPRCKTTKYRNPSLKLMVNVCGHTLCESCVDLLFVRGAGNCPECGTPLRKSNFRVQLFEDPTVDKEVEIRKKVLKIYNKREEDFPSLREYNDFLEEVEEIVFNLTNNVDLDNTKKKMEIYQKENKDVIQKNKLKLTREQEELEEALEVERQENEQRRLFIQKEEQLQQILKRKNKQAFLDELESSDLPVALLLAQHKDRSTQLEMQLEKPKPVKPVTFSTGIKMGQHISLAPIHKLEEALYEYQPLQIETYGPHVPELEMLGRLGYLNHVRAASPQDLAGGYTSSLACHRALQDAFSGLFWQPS

With `CO[C@@H]1CCNC[C@H]1Nc1ncc(C(F)(F)F)c(-c2c[nH]c3cc(-c4c(C)noc4C)ccc23)n1` (single isomer, unassigned) [Compound 127], the IC50 – broadly, the midpoint of a concentration-inhibition curve – was 100 to 500 nM in the assay on COV318 cells; above 500 nM against CDK2/Cyclin E1 complex; above 500 nM against CDK9/Cyclin T1 complex; below 100 nM with COV504 cells; below 100 nM with MB453 cells; below 30 nM in assay [1]. In addition, the 50% inhibitory concentration (IC50) with HCC70 cells was above 1000 nM; in assay [2], above 500 nM.
Consider `Cc1nc(-c2ccc3c(-c4nc(N[C@H]5CC[C@H](C)NC5)ncc4C(F)(F)F)c[nH]c3n2)no1` [Compound 162, 4-[6-(5-methyl-1,2,4-oxadiazol-3-yl)-1H-pyrrolo[2,3-b]pyridin-3-yl]-N-[(3S,6S)-6-methyl-3-piperidyl]-5-(trifluoromethyl)pyrimidin-2-amine], for which the IC50 in the assay with COV318 cells was above 1000 nM; against CDK2/Cyclin E1 complex, above 500 nM; against CDK9/Cyclin T1 complex, above 500 nM; in the assay on COV504 cells it was below 100 nM; in the assay with MB453 cells, 500 to 1000 nM; in assay [1] it was below 30 nM. The IC50 in the assay with HCC70 cells was 100 to 500 nM; in assay [2] it was above 500 nM.
Consider `Cc1nc(-c2ccc3c(-c4nc(N[C@H]5CCCNC5)ncc4C(F)(F)F)c[nH]c3n2)no1` [Compound 139, 4-[6-(5-methyl-1,2,4-oxadiazol-3-yl)-1H-pyrrolo[2,3-b]pyridin-3-yl]-N-[(3S)-3-piperidyl]-5-(trifluoromethyl)pyrimidin-2-amine], for which the IC50 in the assay with COV318 cells is above 1000 nM; at CDK2/Cyclin E1 complex, above 500 nM; on CDK9/Cyclin T1 complex, above 500 nM; in the assay on COV504 cells it was below 100 nM; in the assay with MB453 cells, below 100 nM; in assay [1], below 30 nM. In addition, the figures for the IC50 (in the assay on HCC70 cells; in assay [2]) were below 100 nM and above 500 nM, respectively.
As for `CC1(C)CNC[C@@H](Nc2ncc(C(F)(F)F)c(-c3c[nH]c4cc(-c5nccs5)ccc34)n2)C1` [Compound 109], the IC50 with COV318 cells was below 100 nM; on CDK2/Cyclin E1 complex, above 500 nM; at CDK9/Cyclin T1 complex, above 500 nM; in the assay with COV504 cells it was below 100 nM; in the assay on MB453 cells it was 100 to 500 nM; in assay [1], below 30 nM. In addition, the IC50 in the assay with HCC70 cells is 100 to 500 nM; in assay [2], above 500 nM.
Take `Cc1nsc(-c2ccc3c(-c4nc(N[C@H]5CCCNC5)ncc4C(F)(F)F)c[nH]c3c2)n1` [Compound 130]: the IC50 in the assay with COV318 cells is 100 to 500 nM; at CDK2/Cyclin E1 complex, above 500 nM; against CDK9/Cyclin T1 complex it was above 500 nM; in the assay with COV504 cells, 100 to 500 nM; in the assay with MB453 cells, 100 to 500 nM; in assay [1] it was below 30 nM. In addition, the IC50 in the assay with HCC70 cells is 100 to 500 nM; in assay [2], above 500 nM.
With `Cc1nscc1-c1ccc2c(-c3nc(N[C@H]4CCCNC4)ncc3C(F)(F)F)c[nH]c2c1` [Compound 128], the IC50 in the assay on COV318 cells was 100 to 500 nM; against CDK2/Cyclin E1 complex it was above 500 nM; at CDK9/Cyclin T1 complex it was above 500 nM; with COV504 cells, below 100 nM; in the assay on MB453 cells it was below 100 nM; in assay [1], below 30 nM. The IC50 with HCC70 cells is below 100 nM; in assay [2], above 500 nM.
Take `CC1(C)CC[C@H](Nc2ncc(C(F)(F)F)c(-c3c[nH]c4cc(-c5nccs5)ccc34)n2)CN1` [Compound 106, (S)—N-(6,6-dimethylpiperidin-3-yl)-4-(6-(thiazol-2-yl)-1H-indol-3-yl)-5-(trifluoromethyl)pyrimidin-2-amine]: the IC50 is 100 to 500 nM in the assay on COV318 cells; above 500 nM on CDK2/Cyclin E1 complex; above 500 nM on CDK9/Cyclin T1 complex; below 100 nM with COV504 cells; below 100 nM in the assay with MB453 cells; below 30 nM in assay [1]. Further, the concentration for half-maximal inhibition (IC50) is below 100 nM with HCC70 cells and above 500 nM in assay [2].
Regarding `C[C@@H]1CC[C@@H](Nc2ncc(C(F)(F)F)c(-c3c[nH]c4nc(-c5cnnn5C)ccc34)n2)CN1` [Compound 151, N-[(3R,6R)-6-methyl-3-piperidyl]-4-[6-(3-methyltriazol-4-yl)-1H-pyrrolo[2,3-b]pyridin-3-yl]-5-(trifluoromethyl)pyrimidin-2-amine], the concentration for half-maximal inhibition (IC50) in the assay with COV318 cells was above 1000 nM; against CDK2/Cyclin E1 complex, above 500 nM; against CDK9/Cyclin T1 complex, above 500 nM; in the assay with COV504 cells, above 1000 nM; in the assay on MB453 cells, 500 to 1000 nM; in assay [1], below 30 nM. The IC50 in the assay on HCC70 cells was above 1000 nM; in assay [2], above 500 nM.
For the compound `C[C@H]1CC[C@H](Nc2ncc(C(F)(F)F)c(-c3c[nH]c4nc(-c5cnnn5C)ccc34)n2)CN1` [Compound 150, N-[(3S,6S)-6-methyl-3-piperidyl]-4-[6-(3-methyltriazol-4-yl)-1H-pyrrolo[2,3-b]pyridin-3-yl]-5-(trifluoromethyl)pyrimidin-2-amine], the IC50 in the assay with COV318 cells was 100 to 500 nM; on CDK2/Cyclin E1 complex it was above 500 nM; on CDK9/Cyclin T1 complex, above 500 nM; in the assay with COV504 cells, below 100 nM; in the assay on MB453 cells, below 100 nM; in assay [1], below 30 nM. Besides, the half-maximal inhibitory concentration (IC50) in the assay with HCC70 cells was 100 to 500 nM; in assay [2] it was above 500 nM.
Turning to `Cc1nsc(-c2ccc3c(-c4nc(N[C@H]5CCCNC5)ncc4C(F)(F)F)c[nH]c3n2)n1` [Compound 142], the IC50 in the assay with COV318 cells is 500 to 1000 nM; against CDK2/Cyclin E1 complex, above 500 nM; against CDK9/Cyclin T1 complex, above 500 nM; in the assay on COV504 cells, below 100 nM; with MB453 cells, below 100 nM; in assay [1], below 30 nM. The results for the IC50 (with HCC70 cells; in assay [2]) were below 100 nM and above 500 nM, respectively.
Regarding `Cc1noc(C)c1-c1ccc2c(-c3nc(N[C@@H]4CC[C@@H](C)NC4)ncc3C(F)(F)F)n[nH]c2n1` [Compound 153, 4-[6-(3,5-dimethylisoxazol-4-yl)-1H-pyrazolo[3,4-b]pyridin-3-yl]-N-[(3R,6R)-6-methyl-3-piperidyl]-5-(trifluoromethyl)pyrimidin-2-amine], the IC50 was below 100 nM in the assay on COV318 cells; above 500 nM against CDK2/Cyclin E1 complex; above 500 nM against CDK9/Cyclin T1 complex; below 100 nM with COV504 cells; below 100 nM with MB453 cells; below 30 nM in assay [1]. Besides, the IC50 was below 100 nM in the assay with HCC70 cells and above 500 nM in assay [2].
For the compound `Cc1noc(C)c1-c1ccc2c(-c3nc(N[C@H]4CCCNC4)ncc3C(F)(F)F)c[nH]c2n1` [Compound 101, 4-[6-(3,5-dimethylisoxazol-4-yl)-1H-pyrrolo-[2,3-b]-pyridin-3-yl]-N-[(3S)-3-piperidyl]-5-(trifluoromethyl)pyrimidin-2-amine], the IC50 was below 100 nM with COV318 cells; above 500 nM against CDK2/Cyclin E1 complex; above 500 nM against CDK9/Cyclin T1 complex; below 100 nM in the assay on COV504 cells; below 100 nM in the assay on MB453 cells; below 30 nM in assay [1]. Further, the IC50 with HCC70 cells is below 100 nM; in assay [2], 100 to 500 nM.
In the case of `Cc1noc(-c2ccc3c(-c4nc(N[C@H]5CCCNC5)ncc4C(F)(F)F)c[nH]c3c2)n1` [Compound 121, 4-[6-(3-methyl-1,2,4-oxadiazol-5-yl)-1H-indol-3-yl]-N-[(3S)-3-piperidyl]-5 (trifluoromethyl)pyrimidin-2-amine], the IC50 with COV318 cells was 100 to 500 nM; against CDK2/Cyclin E1 complex, above 500 nM; on CDK9/Cyclin T1 complex, above 500 nM; in the assay with COV504 cells, below 100 nM; in the assay on MB453 cells, below 100 nM; in assay [1], below 30 nM. Also, the figures for the IC50 (with HCC70 cells; in assay [2]) were 100 to 500 nM and above 500 nM, respectively.
For `C[C@H]1CC[C@H](Nc2ncc(C(F)(F)F)c(-c3c[nH]c4nc(-c5nnnn5C)ccc34)n2)CN1` [Compound 165, N-[(3S,6S)-6-methyl-3-piperidyl]-4-[6-(1-methyltetrazol-5-yl)-1H-pyrrolo[2,3-b]pyridin-3-yl]-5-(trifluoromethyl)pyrimidin-2-amine], the IC50 in the assay with COV318 cells is above 1000 nM; against CDK2/Cyclin E1 complex it was above 500 nM; at CDK9/Cyclin T1 complex it was above 500 nM; with COV504 cells, 500 to 1000 nM; with MB453 cells it was 500 to 1000 nM; in assay [1], 30 to 100 nM. For the same compound, the IC50 in the assay on HCC70 cells is above 1000 nM; in assay [2], above 500 nM.
In the case of `Cc1nocc1-c1ccc2c(-c3nc(N[C@@H]4CC[C@@H](C)NC4)ncc3C(F)(F)F)c[nH]c2n1` [Compound 157, 4-[6-(3-methylisoxazol-4-yl)-1H-pyrrolo[2,3-b]pyridin-3-yl]-N-[(3R,6R)-6-methyl-3-piperidyl]-5-(trifluoromethyl)pyrimidin-2-amine], the IC50 is below 100 nM in the assay with COV318 cells; above 500 nM against CDK2/Cyclin E1 complex; above 500 nM against CDK9/Cyclin T1 complex; below 100 nM with COV504 cells; below 100 nM with MB453 cells; below 30 nM in assay [1]. Also, the IC50 with HCC70 cells is below 100 nM; in assay [2], above 500 nM.
